Data published in patent publication US6835715B1, “Mammalian dihydroouabain-like factor and therapeutic compositions” (University of Louisville Research Foundation, Inc., priority 1999, dated 2004).

Legend:
[1] = target: porcine cerebral cortex Na+,K+-ATPase; test: Inhibition of Na+,K+-ATPase catalytic activity (phosphate release from ATP); format: biochemical
Experimental: Dried frozen powder of porcine cerebral cortical tissue (PCC) was reconstituted at 1 Unit/ml in buffer containing; 50 mM Tris-HCl and 2 mM MgCl2, at a pH of 7.2. The reconstituted tissue was then washed three times and resuspended in the same buffer. The protein concentration was determined by BIO-RAD Protein Assay (Bio-Rad, Hercules, Calif.), adjusted to about 1 mg/ml and used both in the catalytic inhibition and ouabain-stimulated phosphorylation experiments (PAGE and Western analysis). The inhibition assay was performed briefly by pipetting 20 μl of sample containing the desired concentration of glycoside (Tris buffer was used for no-inhibitor control) into a well of a microtiter plate placed in a 37° C. water bath for 10 minutes. […] After the incubation period, we added 150 μl of molybdate solution (per liter, 1.0 mmol of molybdate, 11 mmol of sulfuric acid, and 142 ml of Tween 80: methanol solution (12:88 by vol). After 30 minutes of incubation, color development was allowed to proceed for a maximum of 30 min. after which the color intensity was measured by pipetting 150 μl of the reaction mixture from each well to a corresponding well on another microtiter plate. The color intensity is proportional to the release of phosphate ions which is a direct indicator of ATP breakdown and therefore NKA activity. The absorbances were measured simultaneously at 340 nm. […]

anti-ouabain antibody = test: Ouabain EIA, cross-reactivity with anti-ouabain antibody; format: binding; conditions: for cross-reactivity with ouabain antibody: ouabain = 100%
Experimental: UV spectral properties, molar absorptivity, and concentrations of these endogenous factors were calculated.
(§1) OLF was measured using ouabain EIA. This assay uses ouabain covalently bound to the microtiter plate to compete with unbound samples or standards for binding to a constant amount of anti-ouabain antibody (Harris et al., 1991). Dihydroouabain-like immunoreactivity was measured by EIA using a polyclonal dihydroouabain-specific antibody prepared according to our specifications by HTI Bio-Product Inc (Ramona, Calif.). The antibody production strategy was as follows: dihydroouabain (dho) was conjugated to keyhole limpet hemocyanin (KLH) through the rhamnose sugar ring and the resulting conjugate was injected in three rabbits. Blood samples from the rabbits were drawn three weeks after the primary injection, and every two weeks after subsequent booster injections.
Two specific antibodies, one against ouabain and one against dihydroouabain, were used to characterize OLF and DH-OLF. Both of these antibodies are sensitive to structural changes at the lactone ring epitope of these molecules. […] The concentrations were determined using molar absorptivities as described above.

[2] = system: anti-dihydroouabain antibody; test: Dihydroouabain EIA, cross-reactivity with anti-dihydroouabain antibody; format: binding, rabbit; conditions: dihydroouabain = 100%
Experimental: as §1, with “injections. […]” for “injections.”
Briefly, immunoassay plates were coated with approximately 0.5 μg dho-BSA conjugate/well for a minimum of 18 hrs. at 4° C. […] Color development was monitored at 650 nm for a maximum of 30 min. after which the reaction was stopped with TMB Stop buffer and the plate was then read at 450 nm. The readings were adjusted with a system blank and for non-specific binding.
Two specific antibodies, one against ouabain and one against dihydroouabain, were used to characterize OLF and DH-OLF. […] The concentrations were determined using molar absorptivities as described above.

[3] = system: Na+,K+-ATPase α-subunits (porcine cerebral cortical tissue); test: Ouabain-stimulated 32Pi phosphorylation of Na+,K+-ATPase alpha subunit; format: biochemical; conditions: equimolar concentrations; ouabain = 100%; listed as Dho
Experimental: The ouabain-stimulated phosphorylation of Na^+, K^+-ATPase by phosphate was performed as described in Huang et al., (1994) with some minor modifications. Since the covalently phosphorylated intermediate of the sodium pump formed from inorganic phosphorous (^32Pi) is alkali-labile (acid-stable phosphenzyme intermediate), acidic pH gel electrophoresis was used to resolve the radioactively labeled protein species. Briefly, 60 μl aliquots containing 100-200 μg of porcine cerebral cortical tissues (PCC) were pre-incubated at room temperature for 25 min. with 20 μl of sample in the reaction buffer (50 mM Tris-HCL and 2 mM MgCl2, pH 7.2). A positive control was pre-incubated with 20 μl of a 1 mM ouabain solution also, a negative control was pre-incubated with 20 μl of buffer alone. 10 μl of ^32Pi (1 mCi in 100 μl) was diluted with 250 μl of phosphoric acid and purified through 0.2 μm filter to remove polyphosphates. At the end of the incubation, 20 μl of the ^32Pi filtrate (30 μM, 8 uCi) was added to the mixture and allowed to incubate at room temperature for an additional 15 minutes. The reaction was terminated by the addition of 1 ml 8% HCLO4 which precipitated the proteins and left unincorporated ^32Pi in solution. […] Autoradiograms were quantitated using a soft laser scanning densitometer. […]

SMILES	IC50 ([1]; porcine cerebral cortex enzyme, read-out: IC50 for inhibiting the catalytic activity of the Na+,K+-ATPase enzyme)	times less potent than ouabain for inhibition of Na+,K+-ATPase ([1]; relative to ouabain)	cross-reactivity with ouabain antibody (anti-ouabain antibody)	cross-reactivity with dihydroouabain antibody [2]	phosphorylation activity relative to ouabain [3]	affinity for anti-ouabain antibody (anti-ouabain antibody)
C[C@@H]1O[C@@H](O[C@H]2C[C@@H](O)[C@]3(CO)[C@H]4[C@H](O)C[C@]5(C)[C@@H]([C@@H]6COC(=O)C6)CC[C@]5(O)[C@@H]4CC[C@]3(O)C2)[C@H](O)[C@H](O)[C@H]1O [dho-B]	1700 nM	3 times	–	–	–	–
C[C@@H]1O[C@@H](O[C@H]2C[C@@H](O)[C@]3(CO)[C@H]4[C@H](O)C[C@]5(C)[C@@H](C6=CC(=O)OC6)CC[C@]5(O)[C@@H]4CC[C@]3(O)C2)[C@H](O)[C@H](O)[C@H]1O [ouabain, Ouabain]	–	–	100%	0.1%	–	–
C[C@@H]1O[C@@H](O[C@H]2C[C@@H](O)[C@]3(CO)[C@H]4[C@H](O)C[C@]5(C)[C@@H]([C@@H]6COC(=O)C6)CC[C@]5(O)[C@@H]4CC[C@]3(O)C2)[C@H](O)[C@H](O)[C@H]1O [dihydroouabain, Dihydroouabain]	–	–	2-3%	100%	82%	little affinity
